Data set [1] deals with LPS-injected C57BL/6J mice. As to the kind of experiment: Survival in LPS model of sepsis. Type of data set: in vivo, mouse. The text has this: All experimental procedures were approved by Vanderbilt and Mercer Institutional Animal Care and Use Committees. The use of LPS is well-established model of bacterial sepsis in rodents (1-3). The concentrations of LPS that can be used to induce sepsis in mice depend on many factors (source of LPS, age/size, and strains of animals, desired time of response, target of interest, etc.) and may vary between different manufactures. To test the protective properties of mito2HOBA, the present inventors used LPS from E. coli O111:B4 (Sigma L8274). […] The same lot of LPS was used throughout entire study.

The subject of a further data set is mPTP. It is filed as in vivo. The following applies: treatment of Ang II-infused mice with mito2HOBA.
In data set [2] the test system is aortic mitochondrial proteins (SOD2, CypD, NDUFS1). Kind of data set: Western blot analysis of mitochondrial acetylation and isoLG adducts in aortas of angiotensin II-infused mice. Type of data set: in vivo, mouse. From the text:
FIGS. 11A-D show Western blot analysis of mitochondrial acetylation in aortas isolated from Sham and angiotensin II-infused mice treated with mito2HOBA. (A) Typical Western blots isoLG-protein adducts (D11 ab), Sirt3, Acetyl-Lysine, SOD2-K68-Acetylation, CypD Acetylation, isoLG adduct with complex I NDUFS1 75 KDa subunit and mitochondrial complex I; (B) Sirt3 levels; (C) mitochondrial protein lysine acetylation; (D) SOD2-K68-Acetyl levels; and (E) CypD-Acetyl levels. Mice supplied with mito2HOBA (m2H) in drinking water (0.1 g/L) and angiotensin II (osmotic pump, 0.7 mg/kg/day) for 14 days. Data were normalized by Complex I levels (Sham is 100%). Results are mean±SEM (n=5). *P<0.01 vs Sham, **P<0.01 vs angiotensin II (Ang II).
Dihydroethidium (DHE) and MitoSOX superoxide probes were supplied by Invitrogen (Grand Island, NY). Sirt3 (54905) antibodies were from Cell Signaling. Acetyl-K68-SOD2 (ab137037), complex I NDUFS1 75 kDa subunit (ab22094) and CypD (ab110324) and GAPDH (ab8245) antibodies were from Abcam. SOD2 (sc30080) antibodies were obtained from Santa Cruz Biotechnology. Acetyl-lysine antibodies (ab3839) were provided by Millipore-Sigma. D11, an isoLG-lysyl adducts-specific scFv antibody, has been previously characterized. All antibodies were used at 1000-fold dilution. […] All other reagents were obtained from Sigma (St Louis, MO).
On the technique in general: In western blotting, separated proteins are transferred to a membrane and probed.

For data set [3], the system named is mitochondrial isoLG-Lysyl-Lactam protein adducts. As to the kind of experiment: isoLG-Lysyl-Lactam adducts in kidney mitochondria by LC/MS/MS. It is filed as in vivo, mouse. The following applies: Ang II-infused mice, mito2HOBA 0.1 g/L. From the text: FIGS. 10A-D show the effect of mito2HOBA on angiotensin II-induced hypertension and accumulation of mitochondrial isoLGs protein adducts. (A) Blood pressure tail-cuff measurements in male Sham or angiotensin II-infused mice supplied with mito2HOBA in drinking water (0.1 g/L) or equimolar amount of untargeted analog 2HOBA (0.17 mmol/L). (B) Telemetry studies of blood pressure in angiotensin II-infused mice supplied with mito2HOBA or plain water as a vehicle. (C) Representative LC/MS/MS chromatograms of isoLG-Lysyl-Lactam adduct; (D) isoLG-Lys-Lactam levels in kidney mitochondria isolated from Sham or angiotensin II-infused mice supplied with mito2HOBA. Results are mean±SEM. *P<0.01 vs Sham, **P<0.01 vs Ang II (n=8).
C57B1/6J mice were sacrificed by carbon dioxide and kidneys removed, cleaned from fat tissue and placed in the ice-slurry cold isolation medium. […] Mitochondrial protein concentration was measured by Bradford method.
IsoLG-Lysyl-Lactam adducts were measured in mitochondria isolated from the kidneys of sham or angiotensin II-infused mice using Mass Spectrometry. […] A [^13C6] internal standard was added and the isoLG-lysyl adducts were purified by solid phase extraction and HPLC before being quantified by Liquid Chromatography-tandem Mass Spectrometry assay (LC/ESI/MS/MS) using isotopic dilution as described previously.

Another data set concerns kidney mitochondria. As to the kind of experiment: Respiration of kidney mitochondria isolated from mito2HOBA and LPS treated mice. Type of data set: in vivo, mouse.
A further data set in a line: Water solubility. It is filed as physicochemical. The text has this:
Mito2HOBA is a water-soluble compound which can be supplied in the media and provided to animals in the drinking water.

Data set [4] has as its system human aortic endothelial cells (HAEC). As to the kind of experiment: Mitochondrial superoxide in human aortic endothelial cells stimulated with angiotensin II plus TNFα (mitoSOX HPLC). It is filed as cell-based. Conditions: 50 nM, angiotensin II plus TNFα for 4-hours. Here is the method: FIGS. 9A and B show the effect of mito2HOBA on mitochondrial superoxide and cardiolipin oxidation in human aortic endothelial cells induced by angiotensin II plus TNFα. (A) Mitochondrial superoxide was measured by HPLC analysis of mitoSOX-superoxide specific product, mito-2-hydroxyethidium (Mito-2OH-Et+). […] (B) Cardiolipin oxidation induced by Angiotensin II+TNFα measured my LC/MS. […] Data are mean±SEM. *P<0.01 vs Control, **P<0.01 vs Angiotensin II+TNFα (n=4).
Human aortic endothelial cells (HAEC) were purchased from Lonza (Chicago, IL) and cultured in EGM-2 medium supplemented with 2% FBS but without antibiotics. On the day before the study, the FBS concentration was reduced to 1%.
We tested if mito2HOBA reduces mitochondrial oxidative stress in human aortic endothelial cells (HAEC) stimulated with angiotensin II plus TNFα for 4-hours (FIG. 9). Indeed, supplementation of HAEC with mito2HOBA (50 nM) reduced mitochondrial superoxide production stimulated by TNF[…] and Ang II as measured by accumulation of specific superoxide-MitoSOX product, 2-OH-Mito-Ethidium.

Setting [5] is: LPS 25 μg/g plus mito2HOBA 0.1 g/L.
Setting [6] is: mito2HOBA alone, 0.1 g/L drinking water, 4 days.

For the molecule `NCc1ccc(OCCCC[P+](c2ccccc2)(c2ccccc2)c2ccccc2)cc1O` [mito2HOBA], the “increase of animal survival” value in data set [1] (96 hours post-injection of LPS 25 μg/g, mito2HOBA 0.1 g/L drinking water) was 3 fold. For the same molecule, the “reduction of animal immediate and extended mortality” value in data set [1] (LPS model of sepsis, mito2HOBA supplementation) stood at 3 fold. Also, the “renal mitochondrial Ca2+-retention capacity” value with mPTP is reported as “completely prevented decline”. Moreover, the “SOD2 acetylation in aortas” value in data set [2] (% compared to control mice, Ang II plus mito2HOBA) stood at 147%. Further, the “CypD acetylation in aortas” value in data set [2] (% compared to control, Ang II plus mito2HOBA) was 156%. Besides, the “hyperacetylation of mitochondrial proteins in aortas” value in data set [2] (Ang II 14 days, mito2HOBA 0.1 g/L (Ang II alone 420%)) is listed as “normalized”. For the same molecule, in data set [2] (Ang II plus mito2HOBA), the “isoLG-complex I NDUFS1 subunit adduct levels” value was “reduced” and the “mitochondrial isoLG adducts in aortic mitochondria” value is “inhibited formation”. Also, the “isoLG-Lysyl-Lactam adducts formation in kidney mitochondria” value in data set [3] is “abolished”. In addition, in the data set on kidney mitochondria (setting [5]), the “LPS-induced impairment of GM-mediated respiration” value is “significantly protected”, the “LPS-induced impairment of complex I-specific oxygen consumption in the presence of GM+malonate” value is on record as “significantly protected”, the mitochondrial protein leak entry is reported as “did not affect” and the succinate mediated respiration entry was “did not affect”. Moreover, in the data set on kidney mitochondria (setting [6]), the “complex I-specific oxygen consumption in the presence of GM+malonate” value was “improved” and the succinate-driven respiration result is reported as “slightly reduced”. In the data set “Water solubility”, the water solubility result is listed as “water-soluble”. For the same molecule, the mitochondrial superoxide production result in data set [4] was “reduced”.

The record behind these values is patent US12564580B2, “Mitochondria-targeted isoketal/isolevuglandin scavengers and uses thereof” (Vanderbilt University, priority 2020, dated 2026).
